In US11078204B2, “Heterocyclic derivatives as PI3K inhibitors” (Incyte Corporation, priority 2018, dated 2021):
Counter-ions that a name gives are not always drawn.

Key:
[1] = molecular target: PI3Kγ (p110γ) Recombinant Human Protein (Homo sapiens (Human), UniProt P48736); test: PI3K-γ Scintillation Proximity Assay; assay type: biochemical; settings: 20 μM PIP2, 2 μM ATP, 13 nM PI3Kγ, 120 min
Description: Example B. PI3K-γ Scintillation Proximity Assay
(§1) [γ-^33P]ATP (10 mCi/mL) and Wheat Germ Agglutinin (WGA) YSi SPA Scintillation Beads was purchased from Perkin Elmer (Waltham, Mass.). Lipid kinase substrate, D-myo-Phosphatidylinositol 4,5-bisphosphate (PtdInS(4,5)P2)D (+)-sn-1,2-di-O-octanoylglyceryl, 3-O-phospho linked (PIP2), CAS 204858-53-7, was purchased from Echelon Biosciences (Salt Lake City, Utah). PI3Kγ (p110γ) Recombinant Human Protein was purchased from Life technology (Grand Island, N.Y.). ATP, MgCl2, DTT, EDTA, MOPS and CHAPS were purchased from Sigma Aldrich (St. Louis, Mo.).
(§2) The kinase reaction was conducted in polystyrene 384-well Greiner Bio-one white plate from Thermo Fisher Scientific in a final volume of 25 μL. Inhibitors were first diluted serially in DMSO and added to the plate wells before the addition of other reaction components. The final concentration of DMSO in the assay was 2%. The PI3Kγ assay was carried out at room temperature in 20 mM MOPS, pH 6.7, 10 mM MgCl2, 5 mM DTT and CHAPS 0.03%. Reactions were initiated by the addition of ATP, the final reaction mixture consisted of 20 μM PIP2, 2 μM ATP, 0.5 μCi [γ-^33p]ATP, 13 nM PI3Kγ. Reactions were incubated for 120 min and terminated by the addition of 40 μL SPA beads suspended in quench buffer: 163 mM potassium phosphate pH 7.8, 20% glycerol, 25 mM EDTA. The final concentration of SPA beads is 1.0 mg/mL. After the plate sealing, plates were shaken overnight at room temperature and centrifuged at 1500 rpm for 10 min, the radioactivity of the product was determined by scintillation counting on Topcount (PerkinElmer). IC50 determination was performed by fitting the curve of percent of the solvent control activity versus the log of the inhibitor concentration using the GraphPad Prism 6.0 software.

[2] = molecular target: PI3Kδ (p110δ/p85α) Recombinant Human Protein (Homo sapiens (Human), UniProt O00329); test: PI3Kδ Scintillation Proximity Assay; assay type: biochemical; settings: 20 μM PIP2, 2 μM ATP, 3.4 nM PI3Kδ, 120 min
Description: Example C. PI3Kδ Scintillation Proximity Assay
as §1, with “PI3Kδ (p110δ/p85α)” for “PI3Kγ (p110γ)”, “Eurofins (St Charles, Mo.).” for “Life technology (Grand Island, N.Y.).”
as §2, with “PI3Kδ” for “PI3Kγ”, “[γ-^33P]ATP, 3.4” for “[γ-^33p]ATP, 13”, “PI3Kδ.” for “PI3Kγ.”

[3] = system: Phosphorylated Ribosomal Protein S6 (RPS6) in THP-1 cells; test: THP-1 RPS6 ELISA Assay; assay type: cell-based; settings: Homo sapiens, 2 hours compound, 10 nM MCP-1 for 15 minutes, Phospho-RPS6 ELISA, read-out: PI3Kγ_THP1_RPS6_ELISA IC50
Description: Example A. THP-1 RPS6 ELISA Assay To measure the Phosphorylated Ribosomal Protein S6 (RPS6) in cell lysates, THP-1 cells (Human Acute Monocytic Leukemia) are purchased from ATCC (Manassas, Va.) and maintained in RPMI with 10% FBS (Gibco/Life Technologies, Carlsbad, Calif.). For the assay, THP-1 cells are serum starved overnight in RPMI, then plated in RPMI (2×10^5 cells/well in 90 μL) into 96-well flat-bottom tissue culture treated plates (Corning, Corning, N.Y.), in the presence or absence of a concentration range of test compounds. Covered plates are incubated for 2 hours at 37° C., 5% CO2 then treated with or without 10 nM MCP-1 (MYBioSource, San Diego, Calif.) for 15 minutes at 37° C., 5% CO2. Plates are centrifuged at 1600 RPM and supernatants are removed. Cells are lysed in Lysis Buffer (Cell Signaling, Danvers, Mass.) with Protease Inhibitor (Calbiochem/EMD, Germany), PMSF (Sigma, St Louis Mo.), HALTS (Thermo Fisher, Rockford, Ill.) for 30 min on wet ice. Cell lysates are frozen at −80° C. before testing. The lysates are tested in the Human/Mouse/Rat Phospho-RPS6 ELISA (R&D Systems, Inc. Minn, Minn.). The plate is measured using a microplate reader (SpectraMax M5-Molecular Devices, LLC Sunnyvale, Calif.) set to 450 nm with a wavelength correction of 540. IC50 determination is performed by fitting the curve of inhibitor percent inhibition versus the log of the inhibitor concentration using the GraphPad Prism 5.0 software.

Sequence of PI3Kδ (p110δ/p85α) Recombinant Human Protein (O00329 whole entry): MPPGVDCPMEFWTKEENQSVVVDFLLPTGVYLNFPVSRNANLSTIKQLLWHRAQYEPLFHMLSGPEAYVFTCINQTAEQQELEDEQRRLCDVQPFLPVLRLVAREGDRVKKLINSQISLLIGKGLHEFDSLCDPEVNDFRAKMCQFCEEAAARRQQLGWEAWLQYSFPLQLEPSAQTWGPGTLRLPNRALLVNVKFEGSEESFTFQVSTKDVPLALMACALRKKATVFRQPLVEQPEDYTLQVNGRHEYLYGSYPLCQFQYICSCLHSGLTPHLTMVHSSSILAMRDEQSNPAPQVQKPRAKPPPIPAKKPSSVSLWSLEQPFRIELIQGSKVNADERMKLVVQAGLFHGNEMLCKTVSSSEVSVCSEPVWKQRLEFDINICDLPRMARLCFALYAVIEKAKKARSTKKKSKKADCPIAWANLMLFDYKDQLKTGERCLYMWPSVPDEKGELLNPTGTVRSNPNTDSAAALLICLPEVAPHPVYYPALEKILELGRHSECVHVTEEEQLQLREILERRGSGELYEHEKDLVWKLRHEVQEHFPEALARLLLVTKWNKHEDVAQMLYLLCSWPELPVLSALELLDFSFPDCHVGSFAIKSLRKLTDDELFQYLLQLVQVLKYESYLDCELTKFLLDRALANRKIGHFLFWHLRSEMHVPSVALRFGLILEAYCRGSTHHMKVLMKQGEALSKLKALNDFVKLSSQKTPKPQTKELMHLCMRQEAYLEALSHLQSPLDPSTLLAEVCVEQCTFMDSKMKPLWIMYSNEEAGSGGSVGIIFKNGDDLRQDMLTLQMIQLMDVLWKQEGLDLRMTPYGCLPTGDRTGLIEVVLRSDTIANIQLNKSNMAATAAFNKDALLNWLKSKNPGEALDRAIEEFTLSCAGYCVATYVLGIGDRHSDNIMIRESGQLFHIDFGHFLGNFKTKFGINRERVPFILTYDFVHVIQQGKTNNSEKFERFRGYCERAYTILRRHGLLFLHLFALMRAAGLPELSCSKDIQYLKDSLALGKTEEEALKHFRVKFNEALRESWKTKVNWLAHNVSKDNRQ
Sequence of PI3Kδ (p110δ/p85α) Recombinant Human Protein (P27986 whole entry partner): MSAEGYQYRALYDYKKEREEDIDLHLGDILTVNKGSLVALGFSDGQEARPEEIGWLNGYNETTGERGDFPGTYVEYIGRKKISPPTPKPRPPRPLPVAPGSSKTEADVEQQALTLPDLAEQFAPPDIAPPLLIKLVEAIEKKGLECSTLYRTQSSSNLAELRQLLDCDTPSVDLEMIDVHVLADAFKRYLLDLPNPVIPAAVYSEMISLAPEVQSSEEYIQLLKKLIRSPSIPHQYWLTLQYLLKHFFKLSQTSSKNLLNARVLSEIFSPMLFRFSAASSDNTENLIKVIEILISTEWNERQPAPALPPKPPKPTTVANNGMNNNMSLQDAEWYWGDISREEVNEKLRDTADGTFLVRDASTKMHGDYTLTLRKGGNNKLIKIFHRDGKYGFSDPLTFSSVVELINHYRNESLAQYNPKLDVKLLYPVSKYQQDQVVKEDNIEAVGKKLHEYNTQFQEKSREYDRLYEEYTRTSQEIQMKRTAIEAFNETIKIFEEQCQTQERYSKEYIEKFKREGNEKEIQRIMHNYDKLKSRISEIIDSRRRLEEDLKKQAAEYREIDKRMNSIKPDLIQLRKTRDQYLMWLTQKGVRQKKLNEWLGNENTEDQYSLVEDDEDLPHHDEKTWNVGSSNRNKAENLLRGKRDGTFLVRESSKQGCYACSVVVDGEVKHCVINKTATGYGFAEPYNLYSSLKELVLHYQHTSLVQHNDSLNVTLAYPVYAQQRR
Sequence of PI3Kγ (p110γ) Recombinant Human Protein (P48736 whole entry): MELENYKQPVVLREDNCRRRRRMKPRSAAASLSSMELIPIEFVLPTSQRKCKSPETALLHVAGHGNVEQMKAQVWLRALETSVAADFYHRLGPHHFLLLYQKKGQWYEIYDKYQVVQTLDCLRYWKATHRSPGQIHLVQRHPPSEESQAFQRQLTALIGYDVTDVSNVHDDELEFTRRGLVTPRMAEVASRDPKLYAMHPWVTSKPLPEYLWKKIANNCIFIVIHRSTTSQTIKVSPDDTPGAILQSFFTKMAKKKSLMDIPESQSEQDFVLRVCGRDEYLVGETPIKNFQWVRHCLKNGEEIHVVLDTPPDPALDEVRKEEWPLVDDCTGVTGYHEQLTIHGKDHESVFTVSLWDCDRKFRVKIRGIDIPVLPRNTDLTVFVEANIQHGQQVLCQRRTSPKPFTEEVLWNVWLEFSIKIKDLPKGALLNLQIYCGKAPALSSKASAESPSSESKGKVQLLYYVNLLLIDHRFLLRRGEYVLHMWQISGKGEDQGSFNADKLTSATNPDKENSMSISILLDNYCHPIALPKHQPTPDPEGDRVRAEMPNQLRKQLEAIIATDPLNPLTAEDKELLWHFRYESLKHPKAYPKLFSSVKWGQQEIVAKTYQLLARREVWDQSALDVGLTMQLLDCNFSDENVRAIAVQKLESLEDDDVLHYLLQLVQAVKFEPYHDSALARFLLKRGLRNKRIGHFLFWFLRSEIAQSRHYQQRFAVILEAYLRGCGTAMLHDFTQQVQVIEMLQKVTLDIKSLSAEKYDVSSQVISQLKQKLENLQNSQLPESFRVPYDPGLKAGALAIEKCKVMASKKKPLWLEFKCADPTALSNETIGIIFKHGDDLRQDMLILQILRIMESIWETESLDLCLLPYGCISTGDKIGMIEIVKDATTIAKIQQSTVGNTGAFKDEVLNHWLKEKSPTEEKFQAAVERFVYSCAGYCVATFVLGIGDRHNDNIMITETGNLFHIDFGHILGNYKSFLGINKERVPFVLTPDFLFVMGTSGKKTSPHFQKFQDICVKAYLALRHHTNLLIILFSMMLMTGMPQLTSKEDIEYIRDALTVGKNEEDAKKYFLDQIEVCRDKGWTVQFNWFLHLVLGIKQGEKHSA

Compound | IC50 [1] | IC50 [2] | IC50 [3]
CC(C)N1Cc2cc(-c3cnc4c(N)nc(C(F)(F)F)cn34)ccc2C1=O [Example 13, 5-(8-Amino-6-(trifluoromethyl)imidazo[l,2-a]pyrazin-3-yl)-2-isopropylisoindolin-1-one trifluoroacetate salt] | ≤ 0.1 µM | ≥ 2 µM | ≥ 1 µM
C[C@@H](C1CC1)N1Cc2cc(-c3cnc4c(N)nc(C(F)(F)F)cn34)ccc2C1=O [Example 5, (S)-5-(8-Amino-6-(trifluoromethyl)imidazo[1,2-a]pyrazin-3-yl)-2-(1-cyclopropylethyl)isoindolin-1-one] | ≤ 0.1 µM | ≥ 2 µM | ≥ 1 µM
C[C@@H](C1CC1)N1Cc2cc(-c3cnc4c(N)nc(C(=O)N5CCC5)cn34)cc(S(C)(=O)=O)c2C1=O [Example 29a, (S)-5-(8-Amino-6-(azetidine-1-carbonyl)imidazo[1,2-a]pyrazin-3-yl)-2-(1-cyclopropylethyl)-7-(methylsulfonyl)isoindolin-1-one, trifluoroacetate salt] | ≤ 0.1 µM | < 2 µM | ≥ 1 µM
CC(C)NC(=O)c1cn2c(-c3cc4c(c(S(C)(=O)=O)c3)C(=O)N([C@@H](C)C3CC3)C4)cnc2c(N)n1 (single isomer, unassigned) [Example 28, trifluoroacetate salt] | ≤ 0.1 µM | ≤ 0.5 µM | ≤ 0.5 µM
Cc1[nH]ncc1-c1cn2c(-c3cc4c(c(S(C)(=O)=O)c3)C(=O)N([C@@H](C)C3CC3)C4)cnc2c(N)n1 [Example 37, (S)-5-(8-Amino-6-(5-methyl-1H-pyrazol-4-yl)imidazo[1,2-a]pyrazin-3-yl)-2-(1-cyclopropylethyl)-7-(methylsulfonyl)isoindolin-1-one, trifluoroacetate salt] | ≤ 0.1 µM | ≤ 0.5 µM | < 1 µM
C[C@@H](C1CC1)N1Cc2cc(-c3cnc4c(N)nc(C(=O)NC5CC(O)C5)cn34)ccc2C1=O (stereo partly drawn) [Example 31, (S)-8-Amino-3-(2-(1-cyclopropylethyl)-1-oxoisoindolin-5-yl)-N-(3-hydroxycyclobutyl)imidazo[1,2-a]pyrazine-6-carboxamide, trifluoroacetate salt] | ≤ 0.1 µM | ≥ 2 µM | ≥ 1 µM
C[C@@H](C1CC1)N1Cc2cc(-c3cnc4c(N)nc(C(F)(F)F)cn34)cc(Cl)c2C1=O [Example 1, (S)-5-(8-Amino-6-(trifluoromethyl)imidazo[1,2-a]pyrazin-3-yl)-7-chloro-2-(1-cyclopropylethyl)isoindolin-1-one] | ≤ 0.1 µM | < 2 µM | ≥ 1 µM
Cc1cc(-c2cnc3c(N)ncnn23)cc2cn(C(C)C3CC3)nc12 (racemic) [Example 18, 7-(2-(1-Cyclopropylethyl)-7-methyl-2H-indazol-5-yl)imidazo[2,1-f][1,2,4]triazin-4-amine trifluoroacetate salt] | ≤ 0.1 µM | ≥ 2 µM | ≥ 1 µM
C[C@@H](C1CC1)N1Cc2cc(-c3cnc4c(N)nc(-c5cn[nH]c5)cn34)cc(S(C)(=O)=O)c2C1=O [Example 38, (S)-5-(8-Amino-6-(1H-pyrazol-4-yl)imidazo[1,2-a]pyrazin-3-yl)-2-(1-cyclopropylethyl)-7-(methylsulfonyl)isoindolin-1-one, trifluoroacetate salt] | ≤ 0.1 µM | ≤ 0.5 µM | ≥ 1 µM

Further lines, results first:

IC50 [1] | IC50 [2] | IC50 [3] | Compound
≤ 0.1 µM | ≤ 0.5 µM | ≥ 1 µM | CSc1cc(-c2cnc3c(N)nc(C(F)(F)F)cn23)cc2c1C(=O)N([C@@H](C)C1CC1)C2 [Example 2, (S)-5-(8-Amino-6-(trifluoromethyl)imidazo[1,2-a]pyrazin-3-yl)-2-(1-cyclopropylethyl)-7-(methylthio)isoindolin-1-one]
≤ 0.1 µM | ≤ 0.5 µM | ≤ 0.5 µM | C[C@@H](C1CC1)N1Cc2cc(-c3cnc4c(N)nc(-c5ccnn5C)cn34)cc(S(C)(=O)=O)c2C1=O [Example 36, (S)-5-(8-Amino-6-(1-methyl-1H-pyrazol-5-yl)imidazo[1,2-a]pyrazin-3-yl)-2-(1-cyclopropylethyl)-7-(methylsulfonyl)isoindolin-1-one, trifluoroacetate salt]
≤ 0.1 µM | ≥ 2 µM | ≥ 1 µM | C[C@@H](C1CC1)N1Cc2cc(-c3cnc4c(N)ncnn34)ccc2C1=O [Example 6, (S)-5-(4-Aminoimidazo[2,1-f][1,2,4]triazin-7-yl)-2-(1-cyclopropylethyl)isoindolin-1-one]
≤ 0.1 µM | < 2 µM | ≥ 1 µM | C[C@@H](C1CC1)N1Cc2cc(-c3cnc4c(N)ncnn34)cc(C(O)(CO)C(F)(F)F)c2C1=O (mixture of isomers) [Example 39, 5-(4-Aminoimidazo[2,1-f][1,2,4]triazin-7-yl)-2-((S)-1-cyclopropylethyl)-7-(1,1,1-trifluoro-2,3-dihydroxypropan-2-yl)isoindolin-1-one, trifluoroacetate salt]
≤ 0.1 µM | ≤ 0.5 µM | ≥ 1 µM | C[C@@H](C1CC1)N1Cc2cc(-c3cnc4c(N)ncnn34)cc(Cl)c2C1=O [Example 7, (S)-5-(4-Aminoimidazo[2,1-f][1,2,4]triazin-7-yl)-7-chloro-2-(1-cyclopropylethyl)isoindolin-1-one]
≤ 0.1 µM | ≤ 0.5 µM | < 1 µM | C[C@@H](C1CC1)N1Cc2cc(-c3cnc4c(N)nc(C(=O)N5CC(F)(F)C5)cn34)cc(S(C)(=O)=O)c2C1=O [Example 29d, (S)-5-(8-Amino-6-(3,3-difluoroazetidine-1-carbonyl)imidazo[1,2-a]pyrazin-3-yl)-2-(1-cyclopropylethyl)-7-(methylsulfonyl)isoindolin-1-one, trifluoroacetate salt]
≤ 0.1 µM | ≤ 0.1 µM | ≤ 0.5 µM | Cc1ncc(-c2cn3c(-c4cc5c(c(S(C)(=O)=O)c4)C(=O)N([C@@H](C)C4CC4)C5)cnc3c(N)n2)o1 (single isomer, unassigned) [Example 33, trifluoroacetate salt]
